The numbers were not newly measured in patent publication US20240000694A1, “Methods and Materials for Matching Chemistry of Individuals and Human Melanin” (Northwestern University, priority 2022, published 2024), which cites them from elsewhere.

The structures appear in SMILES notation.

As to `N[C@@H](CSSC[C@H](N)C(=O)O)C(=O)O` [cystine], the “pKa of —COOH” value is reported as 1.91.
